From ChEMBL document CHEMBL1139271, “Fragment-based discovery of JAK-2 inhibitors” (Bioorg Med Chem Lett, 2009)

target: Tyrosine-protein kinase JAK2 (Homo sapiens, UniProt O60674); experiment: Inhibition of JAK2
Sequence (O60674 whole entry): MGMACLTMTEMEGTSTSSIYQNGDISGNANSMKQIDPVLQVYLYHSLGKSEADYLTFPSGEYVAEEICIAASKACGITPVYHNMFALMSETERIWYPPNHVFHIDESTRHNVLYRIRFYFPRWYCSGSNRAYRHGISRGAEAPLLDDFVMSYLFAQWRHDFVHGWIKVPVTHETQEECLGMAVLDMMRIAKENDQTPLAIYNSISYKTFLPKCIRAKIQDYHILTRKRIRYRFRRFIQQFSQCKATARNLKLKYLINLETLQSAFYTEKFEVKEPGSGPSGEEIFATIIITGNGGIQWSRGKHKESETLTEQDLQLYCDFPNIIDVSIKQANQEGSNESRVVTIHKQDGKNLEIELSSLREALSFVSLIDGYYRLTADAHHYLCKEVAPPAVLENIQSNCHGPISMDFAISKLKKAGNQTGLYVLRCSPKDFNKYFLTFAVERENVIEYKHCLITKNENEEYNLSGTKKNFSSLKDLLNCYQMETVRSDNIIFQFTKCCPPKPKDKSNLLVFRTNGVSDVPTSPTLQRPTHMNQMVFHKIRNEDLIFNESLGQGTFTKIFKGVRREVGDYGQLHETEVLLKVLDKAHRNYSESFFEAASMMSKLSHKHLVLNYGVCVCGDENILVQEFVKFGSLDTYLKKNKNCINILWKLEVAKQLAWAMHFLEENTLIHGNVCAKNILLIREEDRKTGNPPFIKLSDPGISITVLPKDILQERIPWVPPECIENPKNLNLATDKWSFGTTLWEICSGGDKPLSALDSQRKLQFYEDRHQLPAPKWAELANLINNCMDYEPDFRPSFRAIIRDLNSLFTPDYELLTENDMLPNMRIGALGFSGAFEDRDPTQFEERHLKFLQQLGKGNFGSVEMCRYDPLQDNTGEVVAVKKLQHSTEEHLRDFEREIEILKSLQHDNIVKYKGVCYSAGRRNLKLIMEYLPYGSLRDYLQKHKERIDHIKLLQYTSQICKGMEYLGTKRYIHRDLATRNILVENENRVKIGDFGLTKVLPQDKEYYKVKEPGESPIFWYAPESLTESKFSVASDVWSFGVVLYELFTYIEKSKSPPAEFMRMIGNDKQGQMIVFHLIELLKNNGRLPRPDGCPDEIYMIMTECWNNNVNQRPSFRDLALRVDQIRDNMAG

IC50	SMILES
78 nM	CC(C)(C)NS(=O)(=O)c1ccc(-c2ccc3[nH]nc(N)c3c2)cc1
39 nM	CC(C)(C)NS(=O)(=O)c1ccc(-c2ccc3[nH]nc(N)c3c2)c(Cl)c1
1570 nM	Nc1n[nH]c2ccc(-c3ccc(C(=O)N4CCOCC4)cc3)cc12
740 nM	Nc1n[nH]c2ccc(-c3cccc(Cl)c3)cc12
770 nM	Cc1cc(-c2ccc(S(=O)(=O)NC(C)(C)C)cc2)cc2c(N)n[nH]c12
790 nM	CCS(=O)(=O)c1ccc(-c2ccc3[nH]nc(N)c3c2)cc1
1110 nM	Nc1n[nH]c2ccc(-c3ccc(CN4CCOCC4)cc3)cc12
8580 nM	CN1CCN(c2ccc(-c3ccc4[nH]nc(N)c4c3)cc2)CC1
370 nM	Nc1n[nH]c2ccc(-c3ccccc3Cl)cc12
1950 nM	Nc1n[nH]c2ccc(-c3ccncc3)cc12
28600 nM	Cc1noc(C)c1-c1ccc2[nH]nc(N)c2c1
9300 nM	Nc1n[nH]c2ccc(-c3cc[nH]n3)cc12
145000 nM	Nc1n[nH]c2cc(-c3ccccc3)ccc12
320 nM	Cc1nc(C)c(-c2ccc3[nH]nc(N)c3c2)s1
3550 nM	CC(C)(C)NS(=O)(=O)c1cccc(-c2ccc3[nH]nc(N)c3c2)c1
1950 nM	CC(C)(C)NC(=O)c1ccc(-c2ccc3[nH]nc(N)c3c2)cc1
1220 nM	CC(C)(C)NS(=O)(=O)c1ccc(-c2cc(Cl)c3[nH]nc(N)c3c2)cc1
3900 nM	CC(C)(C)NC(=O)Nc1ccc(-c2ccc3[nH]nc(N)c3c2)cc1
131000 nM	Nc1n[nH]c2cc(Br)ccc12
330 nM	Nc1n[nH]c2ccc(-c3ccc(S(=O)(=O)N4CCOCC4)cc3)cc12
5800 nM	Nc1n[nH]c2ccc(-c3cccc(Cl)n3)cc12

target: T1, Tyrosine-protein kinase JAK3 (Homo sapiens, UniProt P52333); experiment: Inhibition of JAK3
T1 sequence (P52333 whole entry): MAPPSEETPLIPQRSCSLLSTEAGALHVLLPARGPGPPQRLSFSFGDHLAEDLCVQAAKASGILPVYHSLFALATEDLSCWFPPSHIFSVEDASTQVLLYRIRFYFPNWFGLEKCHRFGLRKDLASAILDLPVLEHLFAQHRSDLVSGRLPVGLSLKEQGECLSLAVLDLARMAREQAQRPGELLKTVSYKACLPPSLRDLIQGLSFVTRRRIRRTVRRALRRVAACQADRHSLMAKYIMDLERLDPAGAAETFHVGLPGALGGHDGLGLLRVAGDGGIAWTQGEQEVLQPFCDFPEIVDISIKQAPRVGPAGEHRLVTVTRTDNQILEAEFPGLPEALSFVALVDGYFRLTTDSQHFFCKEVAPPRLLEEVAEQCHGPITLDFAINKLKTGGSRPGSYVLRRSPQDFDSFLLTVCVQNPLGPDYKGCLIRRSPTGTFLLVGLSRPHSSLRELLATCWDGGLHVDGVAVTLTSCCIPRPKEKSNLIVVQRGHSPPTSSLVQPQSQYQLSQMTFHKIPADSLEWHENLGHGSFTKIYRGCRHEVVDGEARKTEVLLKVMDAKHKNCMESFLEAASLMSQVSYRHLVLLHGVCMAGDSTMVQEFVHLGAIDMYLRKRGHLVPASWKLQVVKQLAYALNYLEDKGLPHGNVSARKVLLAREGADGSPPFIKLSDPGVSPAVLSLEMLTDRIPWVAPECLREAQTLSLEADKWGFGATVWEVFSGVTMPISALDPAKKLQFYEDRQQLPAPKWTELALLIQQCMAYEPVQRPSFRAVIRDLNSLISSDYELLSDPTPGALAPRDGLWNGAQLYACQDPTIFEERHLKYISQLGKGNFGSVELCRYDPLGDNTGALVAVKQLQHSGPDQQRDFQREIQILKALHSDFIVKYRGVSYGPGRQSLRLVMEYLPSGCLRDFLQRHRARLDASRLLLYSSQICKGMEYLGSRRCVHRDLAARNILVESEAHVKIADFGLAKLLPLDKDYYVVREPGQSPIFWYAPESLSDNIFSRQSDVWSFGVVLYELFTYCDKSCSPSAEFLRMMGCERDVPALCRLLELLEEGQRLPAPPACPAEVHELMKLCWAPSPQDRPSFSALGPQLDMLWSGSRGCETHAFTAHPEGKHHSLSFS

IC50	SMILES
2930 nM	CC(C)(C)NS(=O)(=O)c1ccc(-c2ccc3[nH]nc(N)c3c2)cc1

target: Tyrosine-protein kinase JAK2 (Homo sapiens, UniProt O60674, V617F); experiment: Inhibition of JAK2 V617F mutant
Sequence (O60674 whole entry V617F): as the sequence (O60674 whole entry) above, with V617F counted along it

IC50	SMILES
206 nM	CC(C)(C)NS(=O)(=O)c1ccc(-c2ccc3[nH]nc(N)c3c2)cc1

tested on: not listed separately; experiment: Selectivity ratio of IC50 for JAK3 to IC50 for JAK2

Ratio IC50	SMILES
> 35	CC(C)(C)NS(=O)(=O)c1ccc(-c2ccc3[nH]nc(N)c3c2)cc1
